Results: patent US20080176264A1, “Osteoclast Culture Vessels and Methods of Use” (priority 2004, published 2008)

Tested on: primary human osteoclast precursors
Assay: In vitro bone resorption assay in OSTEOASSAY plate (CTx collagen resorption product in supernatant, EIA)
Assay type: cell-based
Conditions: supernatants assayed after an additional 2 days, M-CSF and soluble RANK ligand
Method: OSTEOASSAY™ plates, which contain adherent particles (≦0.125 mm dimension) of native human bone, were seeded with 10,000 primary human osteoclast precursors (“Poietics™ Osteoclast Precursors,” product no. 2T-110, Cambrex Corporation) per well in medium containing M-CSF+/−soluble RANK ligand and cultured at 37° C. for 5-7 days. Culture media were changed on day 5, 6 or 7 and the cultures were continued for another 1 to 3 days.
The release into the culture supernatants of collagen type I peptides from the bone particles was measured quantitatively by enzyme immunoassay (EIA). Three different commercially available assay kits for the measurement of resorption-specific collagen resorption fragments were evaluated: the METRA™ Helical Peptide EIA kit (Quidel), the Serum CROSSLAPS® ELISA (Nordic Bioscience) kit, and the OSTEOMARK® NTx (Ostex) kit. In some experiments, the OSTEOASSAY™ plate was compared to dentin discs (ALPCO Diagnostics). In other assays, primary human osteoclast precursors were exposed to inhibitors of osteoclast function (alendronate or calcitonin) for 48-72 hours and then assayed for bone resorptive activity.
Primary human osteoclast precursors were seeded at 10,000 cells/well and cultured in medium containing M-CSF and soluble RANK ligand. After 5 days of culture, the medium was renewed +/−1 nM calcitonin or +/−various concentrations of alendronate. […]

Molecule | IC50 (Homo sapiens, Osteoclast, various concentrations added after 5 days of culture, FIG. 4, read-out: IC50 for inhibition of bone resorption (CTx collagen resorption product)) | inhibition of in vitro bone resorption (CTx collagen resorption product) (1 nM calcitonin added after 5 days of culture, FIG. 3)
NCCCC(O)(P(=O)(O)O)P(=O)(O)O [alendronate] | ~1 µM | –
calcitonin | – | effectively inhibits in vitro bone resorption
